The values below come from patent EP1452605A1, “Method for determining antiviral activity” (Universiteit Utrecht Holding B.V., priority 2003, dated 2004).

Data set [1] relates to HIV-1HXB2. Description: HIV-1 infection of PBMC, p24-core antigen ELISA. In kind it is cell-based. To be noted: Human immunodeficiency virus 1, 168 h; PBMC infected with HIV-1HXB2, p24 antigen after 7 days. How it is done:
(§1) To correct for the input virus, an extra control consisting of medium containing the same amount of input virus as added to the cells was included in the experiment. The amount of p24 in this control was subsequently subtracted from the p24 values of the samples in order to obtain the exact amount of p24 produced by the cells. p24-core antigen quantification by ELISA After 2 or 7 days incubation, samples of the supernatants were collected, inactivated by addition of Empigen (Calbiochem, La Jolla, CA, USA) and by heat inactivation at 56°C for 30 min. p24-core antigen concentration was determined by an enzyme linked immunoabsorbent assay (ELISA) (AMPAK™, DAKO, Cambridgeshire, UK) as described previously ^18,19. The optical density values were converted into p24 concentration (ng/ml) with the use of a calibration curve made by serial dilutions of recombinant p24 protein (NIBSC, UK) that was submitted to the same treatment as the samples.
A general note: In an ELISA, binding on a coated surface is turned into a signal by an enzyme label.

Another data set has as its system HIV-1Ba-L. Description: HIV-1 infection of monocyte-derived macrophages (MDM), p24-core antigen ELISA. Format: cell-based. The settings on record: Human immunodeficiency virus 1, Macrophage, 168 h; MDM infected with HIV-1Ba-L, p24 antigen after 7 days. On the procedure:
as §1

In data set [2] the test system is HIV-1HXB2. Nature of the data set: Reverse transcription assay in PBMC: (-) strong stop and gag DNA by real-time Taqman PCR. Format: cell-based. To be noted: 10h after infection. On the procedure:
PBMC infection with HIV-1Ba-L or HIV-1HXB2 for real-time Taqman PCR The ability of HIV-1Ba-L to enter the cells in the presence of APHS was tested using DS as positive control (entry assay). The amount of HIV-1HXB2 reverse transcription products in the presence of APHS was also tested, using AZT as positive control (reverse transcription assay). Before infection, PHA-stimulated PBMC from the PBMC batch were pre-incubated with different concentrations of APHS, DS or AZT for 24 h. Afterwards, cells were washed and 1 × 10^6 PBMC were incubated for 40 min with HIV-1Ba-L or HIV-1HXB2 at an M.O.I. of 0.0025 and with appropriate concentrations of APHS, AZT, DS or medium in the presence of 1/20 concentrated M buffer (Roche) and 4U/ml DNase (Roche) to digest possible contaminating viral DNA associated with the virions. Afterwards PBMC were washed and resuspended in medium with or without compounds. Cells were treated with 1 mg/ml Pronase (Roche) to remove virus particles bound to the cells. […] At different time points, 1.0 × 10^6 cells were added to 900 µl Nuclisens lysis buffer (Organon Teknika, Boxtel, The Netherlands) containing 40 µl silica to bind total nucleic acids (Nuclisens isolation kit). For the entry assay, samples were collected 2h after the start of the infection and for the reverse transcription assays samples were collected 2, 7 and 10h after the start of the infection.
HIV RNA and DNA were extracted from samples of infected cells according to a method described before ^23. Briefly, after 10 min of mixing the silica and lysis buffer, tubes were shortly centrifuged at 13,000 rpm and supernatant was discarded. Free non-nucleic acid components were removed by washing the silica particles twice with Nuclisens washing buffer, twice with 70 % ethanol and once with acetone. The silica pellet was dried for 10 min at 56 °C. Total nucleic acids were eluted by resuspending the pellet in 100 µl nuclease-free water. After mixing the tubes for 10 min at 56 °C, tubes were shortly centrifuged and the supernatant was transferred to a new tube and stored at -20 °C.
Real-time Taqman PCR is based on cleavage of a probe, hybridized to the target sequence by 5'-3' nuclease activity of Taq DNA polymerase during amplification, as described previously ^24. Briefly, target sequence-specific forward and reverse primers prime the amplification reaction. The probe contains a reporter dye at the 5' end and a quencher dye at the 3' end. When both dyes are attached to the probe, reporter dye emission is quenched. The probe is displaced from the target during each polymeration cycle. Once separated from the quencher, the reporter dye emits its characteristic fluorescence, which can then be measured. The amount of fluorescence measured is proportional to the amount of PCR product.
HIV-1 gag cDNA and HIV-1 (-) strong stop and gag DNA were amplified and quantified by real-time Taqman PCR as described elsewhere ^25. Sets of primers/probes were designed according to a previous study by Zack and colleagues ^26. To quantify the amount of gag RNA in the samples, a cDNA standard curve was prepared from five-fold dilutions of extracted RNA from an HXB2 viral batch, of which the RNA amount was previously determined. To quantify (-) strong stop and gag DNA in the samples, a DNA standard curve was prepared from five-fold dilutions of DNA extracted from U1 cells, which contain two copies of the HIV-1HXB2 genome per cell. Albumin was also quantified and used for normalization of all samples.
(In qPCR the cycle at which signal appears reflects the starting amount.)

In another data set the test system is FIV UT-113. Nature of the data set: FIV infection of CrFK cells, FIV p24 ELISA. Format: cell-based, Feline immunodeficiency virus (FIV). The settings on record: 100 to 0.024 µM, p24 after 6 days. How it is done: After 6 days of incubation FIV replication was measured by quantification of the p24 viral core antigen in the cell culture supernatant by an FIV p24 enzyme-linked immunoabsorbent assay as described previously ^19.

Another data set concerns RSV serotype A. Description: RSV infection of HEp-2 cells, FACS with FITC anti-RSV antibody. Format: cell-based, Respiratory syncytium virus (RSV). The settings on record: HEp-2 cells, 4, 5 and 6 days, all APHS concentrations tested. How it is done:
RSV infection of the HEp-2 cell line was performed as described elsewhere (Hament J-M et al., submitted for publication). Briefly, HEp-2 cells were recovered from the culture flasks by trypsinization. Concentrations of HEp-2 cells were determined by microscopic observation in order to have a confluent monolayer at the day of measurement. HEp-2 cells were incubated with APHS and infected with different dilutions of RSV in order to have a good infection at the day of measurement. […] The cells were washed with PBS^2+ (PBS containing 0.15 mM Ca^2+ and 0.5 mM Mg^2+) and incubated with murine-anti-RSV monoclonal antibody conjugated to fluorescein isothiocyanate (FITC) (DAKO, Cambridgeshire, UK) for 15 minutes at 37 °C. Afterwards, cells were washed and resuspended in PBS^2+. Percentage of fluorescent cells was analyzed by FACSCalibur flow cytometer (Becton Dickinson, CA, USA) with computer assisted evaluation data (CellQuest Pro).

Data set [3] is described as follows: Cellular viability assay (MTT) of HFF overlayed with BHK cells. To be noted: hff and bhk cells; read-out: TC50 (the source's name). In kind it is cell-based, Human.
The subject of another data set is HFF and BHK cells. The description is as above. Format: cell-based, Human.
The next data set is described as follows: in vitro. To be noted: human, pbmc.
Another data set relates to PBMC. Description: Cellular viability assay (MTT) of PBMC. To be noted: PBMC viability, 7 days.
In a further data set the test system is 184V. Nature of the data set: Drug susceptibility assay (cell-killing MTT assay) in MT-2 cells. To be noted: Human immunodeficiency virus 1, MT2, 120 h.
The test system of a further data set is 3096. Described as above. To be noted: Human immunodeficiency virus 1, MT2, 120 h.

Method for 184V: (§2) The cells were maintained at 37°C, 5% CO2. One day prior to the experiments, the cells were passaged 1:1 in a concentration of 1 × 10^6 cells/ml.
(§3) The genes that contain the drug resistance mutations are excised from the clinical isolates and cloned into the genetic background of HXB2. Thus all tested HIV-1 strains have the same genetic background. […] This strain contains an insertion of two a.a. between codons 68 and 69 of RT as well as an a.a. change at codon 67.
(§4) After 5 days of incubation a cellular viability assay was performed as described above. In this case, the amount of formazan reflects the number of cells protected by the drug against killing by the virus and is used as a read out for drug susceptibility.
Method for 3096: as §2, §3, §4

In the case of `CCCCC#CCSc1ccccc1OC(C)=O` [APHS, o-(acetoxyphenyl)hept-2-ynyl sulfide], the half-maximal inhibitory concentration (IC50) (as a rule, the point on the concentration scale where inhibition reaches its midpoint) worked out at 11 µM in the data set with HIV-1HXB2 [1], 12 µM in the data set on HIV-1Ba-L, 5 µM with 184V and 4 µM in the data set on 3096. For the same molecule, in the data set on HIV-1HXB2 [2] (10 µM APHS), the “gag cDNA levels versus untreated PBMC” value is listed as “no significant differences”. Besides, the “(-) strong stop DNA copy numbers versus untreated PBMC” value in the data set on HIV-1HXB2 [2] (10 or 30 µM APHS, 5 or 1000 nM AZT) is reported as “did not show a significant decrease”. The inhibition at 30 µM in the data set on HIV-1HXB2 [2] (Human immunodeficiency virus 1, 30 µM APHS, PBMC, read-out: inhibited gag production) is 60%. Further, in the data set with FIV UT-113, the “effect on FIV replication” value is reported as “did not show any effect”. For the same molecule, in the data set with RSV serotype A, the “inhibition of RSV replication” value is “no inhibition of RSV replication”. The CC50 in data set [3] was determined as 374 µM. Moreover, the “cytotoxicity for HFF and BHK cells” value in the data set with HFF and BHK cells is “not cytotoxic”. In the data set “in vitro”, the CC50 at 168 h came to 105 µM. Besides, in the data set with PBMC, the “cytotoxic at concentrations above” value was “above 30 µM”.
